Consider four compounds from article PMC8501045, “Addressing MRSA infection and antibacterial resistance with peptoid polymers” (Nature Communications, 2021).

≈ marks a conversion by molar mass, not a printed value. Where “and” joins values, the source holds several entries; their conditions need not be identical. Identical values can stand only once. Like-named read-outs stand apart in the source and are kept apart here. Where only a bound is given, the exact number is not on record here.

One experiment concerns E. faecalis 0609. As to the kind of experiment: MIC assay, clinical isolate. Format: cell-based. The settings on record: Enterococcus faecalis. As to the method: (§1) MRSA (S. aureus Mu50, S. aureus Newman, S. aureus USA400, S. aureus USA300 LAC, S. aureus USA300) were obtained from Shanghai Institute of Materia Medica, Chinese Academy of Sciences. All clinically isolated Gram-positive bacteria used in this study were isolated from patients with various infections, different ages and sexes in the Shanghai Ruijin Rehabilitation Hospital. All strains were cultured in Luria-Bertani (LB) medium at 37 °C before use.
(§2) Bacteria were cultured in LB medium at 37 °C for 10 h, and then the bacterial suspension was diluted in Mueller–Hinton (MH) medium to a cell density of 2 × 10^5 colony forming units (CFU)/mL as the working suspension. The poly(Naeg)20 was serially diluted by MH medium in a 96-well plate, and an equal volume of bacterial suspension was added into each well. The final concentration of the poly(Naeg)20 was ranging from 200 to 1.56 μg/mL, and the plates were incubated at 37 °C for 9 h. Wells with inoculum and no polymer were used as the positive control; wells with only MH medium were used as the blank. The optical density (OD) in each well was measured on a Molecular Devices SpectraMax M2 precision microplate reader. The percentage of bacteria growth was calculated from1 %cellgrowth=A600polymer-A600blank/A600control-A600blank×100
(§3) The test was independently repeated at least three times.

The next experiment concerns E. faecium 0502. The experiment in a line: MIC assay, clinical isolate. Format: cell-based. The settings on record: Enterococcus faecium; clinical isolate E. faecium 0502; read-out: MIC. As to the method: as §1, §2, §3
In a further experiment the test system is E. faecium 0609. As to the kind of experiment: MIC assay, clinical isolate. The format is cell-based. Particulars: Enterococcus faecium; clinical isolate E. faecium 0609; read-out: MIC. How it is done:
as §1, §2, §3

The next experiment deals with E. faecalis 2305. The experiment in a line: MIC assay, clinical isolate. The format is cell-based. Particulars: Enterococcus faecalis. How it is done: as §1, §2, §3
In the next experiment the test system is S. aureus 2904. The experiment in a line: MIC assay, clinical isolate. The format is cell-based. The settings on record: Staphylococcus aureus; clinical isolate S. aureus 2904; read-out: MIC. As to the method:
as §1, §2, §3

In the next experiment the test system is S. aureus 2802. The experiment in a line: MIC assay, clinical isolate. Format: cell-based. The settings on record: Staphylococcus aureus; clinical isolate S. aureus 2802; read-out: MIC. As to the method: as §1, §2, §3
The next experiment has as its system S. aureus 2202. As to the kind of experiment: MIC assay, clinical isolate. The format is cell-based. Particulars: Staphylococcus aureus; clinical isolate S. aureus 2202; read-out: MIC. As to the method: as §1, §2, §3
The subject of a further experiment is E. faecium 1205. As to the kind of experiment: MIC assay, clinical isolate. The format is cell-based. Particulars: Enterococcus faecium; clinical isolate E. faecium 1205; read-out: MIC. As to the method:
as §1, §2, §3

In a further experiment the test system is S. epidermidis 9397. The experiment in a line: MIC assay, clinical isolate. The format is cell-based. The settings on record: Staphylococcus epidermidis; clinical isolate S. epidermidis 9397; read-out: MIC. As to the method:
as §1, §2, §3

A further experiment deals with S. agalactiae 0613. As to the kind of experiment: MIC assay, clinical isolate. The settings on record: Streptococcus agalactiae; clinical isolate S. agalactiae 0613; read-out: MIC. Format: cell-based. As to the method:
as §1, §2, §3

Another experiment concerns S. epidermidis 0501. As to the kind of experiment: MIC assay, clinical isolate. Particulars: Staphylococcus epidermidis; clinical isolate S. epidermidis 0501; read-out: MIC. The format is cell-based. How it is done:
as §1, §2, §3

In another experiment the test system is S. aureus 2902. The experiment in a line: MIC assay, clinical isolate. The format is cell-based. The settings on record: Staphylococcus aureus; clinical isolate S. aureus 2902; read-out: MIC. How it is done:
as §1, §2, §3

A further experiment relates to S. haemolyticus 1303. The experiment in a line: MIC assay, clinical isolate. The format is cell-based. Particulars: Staphylococcus haemolyticus; clinical isolate S. haemolyticus 1303; read-out: MIC. As to the method:
as §1, §2, §3

The test system of another experiment is S. haemolyticus 0202. As to the kind of experiment: MIC assay, clinical isolate. Format: cell-based. The settings on record: Staphylococcus haemolyticus; clinical isolate S. haemolyticus 0202; read-out: MIC. How it is done: as §1, §2, §3
In the next experiment the test system is E. faecium 2504. As to the kind of experiment: MIC assay, clinical isolate. Format: cell-based. The settings on record: Enterococcus faecium; clinical isolate E. faecium 2504; read-out: MIC. As to the method:
as §1, §2, §3

The subject of the next experiment is S. haemolyticus 1107. As to the kind of experiment: MIC assay, clinical isolate. The format is cell-based. Particulars: Staphylococcus haemolyticus; clinical isolate S. haemolyticus 1107; read-out: MIC. How it is done: as §1, §2, §3
For the next experiment, the system named is E. faecium 0610. As to the kind of experiment: MIC assay, clinical isolate. Format: cell-based. The settings on record: Enterococcus faecium; clinical isolate E. faecium 0610; read-out: MIC. How it is done:
as §1, §2, §3

The subject of the next experiment is L. monocytogenes 1001. As to the kind of experiment: MIC assay, clinical isolate. Format: cell-based, Listeria monocytogene. The settings on record: Listeria monocytogenes. As to the method: as §1, §2, §3
Experiment [1] concerns S. aureus USA300 biofilm formation. As to the kind of experiment: Inhibition study on biofilm formation. Format: cell-based, Staphylococcus aureus. As to the method:
The plate was incubated at 37 °C for 24 h, and then the culture medium was removed, washed with PBS once, followed by adding 100 µL MTT solution (0.5 mg/mL) into the corresponding well. After further incubation at 37 °C for 4 h in the dark, the MTT solution was removed. An aliquot of 100 μL DMSO was added to each well to solubilize the purple solid and then the OD value was collected at 570 nm on a microplate reader. Wells containing inoculum and without antibacterial agents were used as the positive control; wells containing only MH medium were used as the blank. The percentage of surviving cells within biofilm was calculated from4 %cellviability=A570polymer-A570blank/A570control-A570blank×100
as §3

Experiment [2] has as its system S. aureus USA300 mature biofilm. As to the kind of experiment: Activity against mature biofilm. Format: cell-based, Staphylococcus aureus. Particulars: for Biofilm survival(%): norfloxacin, r4-r9 = 64, 128, 256, 512, 1024, 2048 MIC. How it is done:
The plate was incubated at 37 °C for 24 h to allow biofilm formation. […] Then MTT assay was used to determine the biofilm viability. Wells containing inoculum and without antibacterial agents were used as the positive control; wells containing only MH medium were used as the blank. The percentage of surviving cells within biofilm was calculated from5 %cellviability=A570polymer-A570blank/A570control-A570blank×100
as §3

In experiment [3] the test system is S. aureus ATCC6538. The format is cell-based, Staphylococcus aureus. The settings on record: after 375 passages. As to the method:
The antimicrobial-resistance test was conducted according to the previously reported method with slight modification. […] An aliquot of 2.5 μL of the mixture was sampled and diluted 400-fold in LB medium for a new cell-drug incubation cycle. The above cycle was repeated every 24 h. […] Generation of bacteria growth was calculated from incubating time and bacteria growth kinetics described below.

The subject of experiment [4] is S. aureus ATCC6538. As to the kind of experiment: Bacterial killing kinetics. Particulars: 2×MBC (Figure S40). Format: cell-based, Staphylococcus aureus.
Where [5] appears, read: clinical isolate L. monocytogenes 1001, read-out: MIC.
Setting [6] is: clinical isolate E. faecalis 2305, read-out: MIC.

For `CC1(C)S[C@@H]2[C@H](NC(=O)[C@H](N)c3ccccc3)C(=O)N2[C@H]1C(=O)O` [Ampicillin], the minimum inhibitory concentration (MIC) (commonly the least concentration at which growth counts as inhibited) is 3.13 µg/mL (≈ 8.96 µM) in the experiment with E. faecalis 0609 (0609); more than 200 µg/mL in the experiment with E. faecium 0502; more than 200 µg/mL with E. faecium 0609; 12.5 µg/mL (≈ 35.8 µM) against E. faecalis 2305 (2305); 25 µg/mL (≈ 71.5 µM) with S. aureus 2904; 25 µg/mL (≈ 71.5 µM) in the experiment with S. aureus 2802. Moreover, the minimum inhibitory concentration (MIC) was 1.56 µg/mL (≈ 4.46 µM) with S. aureus 2202; more than 200 µg/mL in the experiment with E. faecium 1205; 0.39 µg/mL (≈ 1.12 µM) in the experiment on S. epidermidis 9397; 0.39 µg/mL (≈ 1.12 µM) with S. agalactiae 0613; 6.25 µg/mL (≈ 17.9 µM) in the experiment with S. epidermidis 0501; 25 µg/mL (≈ 71.5 µM) in the experiment with S. aureus 2902. Further, the MIC with S. haemolyticus 1303 is 200 µg/mL (≈ 572 µM); in the experiment on S. haemolyticus 0202, 200 µg/mL (≈ 572 µM); in the experiment on E. faecium 2504 it was 100 µg/mL (≈ 286 µM); in the experiment on S. haemolyticus 1107, more than 200 µg/mL; in the experiment on E. faecium 0610, more than 200 µg/mL; in the experiment with L. monocytogenes 1001 (setting [5]), 1.56 µg/mL (≈ 4.46 µM).

As to `COc1cccc(OC)c1C(=O)N[C@@H]1C(=O)N2[C@@H]1SC(C)(C)[C@@H]2C(=O)O` [Methicillin], the MIC in the experiment on E. faecalis 0609 (clinical isolate E. faecalis 0609, read-out: MIC) is 50 µg/mL (≈ 131 µM); in the experiment with E. faecium 0502, more than 200 µg/mL; in the experiment with E. faecium 0609 it was more than 200 µg/mL; in the experiment with E. faecalis 2305 (setting [6]), more than 200 µg/mL; in the experiment on S. aureus 2904 it was 6.25 µg/mL (≈ 16.4 µM); in the experiment on S. aureus 2802, 6.25 µg/mL (≈ 16.4 µM). The MIC in the experiment on S. aureus 2202 is 3.13 µg/mL (≈ 8.23 µM); in the experiment on E. faecium 1205, more than 200 µg/mL; in the experiment with S. epidermidis 9397, 1.56 µg/mL (≈ 4.1 µM); in the experiment on S. agalactiae 0613, 1.56 µg/mL (≈ 4.1 µM); in the experiment on S. epidermidis 0501 it was 12.5 µg/mL (≈ 32.9 µM); in the experiment with S. aureus 2902, 12.5 µg/mL (≈ 32.9 µM). For the same compound, the MIC in the experiment on S. haemolyticus 1303 is more than 200 µg/mL; in the experiment on S. haemolyticus 0202, 200 µg/mL (≈ 526 µM); with E. faecium 2504, more than 200 µg/mL; in the experiment with S. haemolyticus 1107 it was more than 200 µg/mL; in the experiment with E. faecium 0610, more than 200 µg/mL; with L. monocytogenes 1001 (setting [5]) it was 25 µg/mL (≈ 65.7 µM).

`CCn1cc(C(=O)O)c(=O)c2cc(F)c(N3CCNCC3)cc21` [Norfloxacin]: in [1], the “concentration required to inhibit the formation of S. aureus biofilm” value came to 64 × MIC. In [2], the “concentration that eradicates mature biofilms of S. aureus” value is given as more than 2048 × MIC. Moreover, the “Biofilm survival(%)” value was 91.6463% and 85.7695% and 83.8544% and 89.6297% and 72.4394% and 55.1024% in [2] (replicate 1); 89.0013% and 75.6713% and 82.9402% and 81.0138% and 70.6748% and 61.6339% in experiment [2] (replicate 2); 91.3528% and 81.8867% and 88.4821% and 86.774% and 64.2036% and 56.0543% in [2] (replicate 3). Further, the “increase of MBC” value with S. aureus ATCC6538 [3] came to 1024 times. Further, the “time to kill 90% of S. aureus” value in the experiment with S. aureus ATCC6538 [4] was in the range of 2 to 3 h. Also, the MIC with E. faecalis 0609 (0609) is 1.56 µg/mL (≈ 4.89 µM); with E. faecium 0502 it was 100 µg/mL (≈ 313 µM); in the experiment with E. faecium 0609 it was more than 200 µg/mL; with E. faecalis 2305 (setting [6]), 25 µg/mL (≈ 78.3 µM); in the experiment on S. aureus 2904, 200 µg/mL (≈ 626 µM); in the experiment with S. aureus 2802, 200 µg/mL (≈ 626 µM). The MIC came to 50 µg/mL (≈ 157 µM) in the experiment with S. aureus 2202; 100 µg/mL (≈ 313 µM) in the experiment with E. faecium 1205; 0.2 µg/mL (≈ 0.626 µM) with S. epidermidis 9397; 25 µg/mL (≈ 78.3 µM) in the experiment with S. agalactiae 0613; 0.2 µg/mL (≈ 0.626 µM) in the experiment on S. epidermidis 0501; 25 µg/mL (≈ 78.3 µM) in the experiment on S. aureus 2902. The minimum inhibitory concentration (MIC) is 25 µg/mL (≈ 78.3 µM) in the experiment with S. haemolyticus 1303; 100 µg/mL (≈ 313 µM) in the experiment on S. haemolyticus 0202; 200 µg/mL (≈ 626 µM) in the experiment on E. faecium 2504; 100 µg/mL (≈ 313 µM) in the experiment with S. haemolyticus 1107; 200 µg/mL (≈ 626 µM) in the experiment on E. faecium 0610; 1.56 µg/mL (≈ 4.89 µM) in the experiment with L. monocytogenes 1001 (1001).

Take `C[C@H]1COc2c(N3CCN(C)CC3)c(F)cc3c(=O)c(C(=O)O)cn1c23` [levofloxacin]: in the experiment with S. aureus ATCC6538 [4], the “time to kill 90% of S. aureus” value is 2 to 3 h.
